Assay results published in patent publication US6579900B2, “Anandamide amidase inhibitors as analgesic agents” (priority 1996, dated 2003).
pIC50, pKi: −log10 of the molar value. Like-named read-outs stand apart in the source and are kept apart here.

Legend:
[1] = target: T1, anandamide amidase (Rattus norvegicus, UniProt P97612); assay: Anandamide amidase assay in vitro, crude rat brain homogenate; type: biochemical
T1 construct: Crude rat brain homogenate was obtained by decapitating female adult Sprague-Dawley rats, dissecting the desired tissue and homogenizing; from tissue; host or cells: crude brain homogenate of female adult Sprague-Dawley rats
T1 sequence (P97612 1-579): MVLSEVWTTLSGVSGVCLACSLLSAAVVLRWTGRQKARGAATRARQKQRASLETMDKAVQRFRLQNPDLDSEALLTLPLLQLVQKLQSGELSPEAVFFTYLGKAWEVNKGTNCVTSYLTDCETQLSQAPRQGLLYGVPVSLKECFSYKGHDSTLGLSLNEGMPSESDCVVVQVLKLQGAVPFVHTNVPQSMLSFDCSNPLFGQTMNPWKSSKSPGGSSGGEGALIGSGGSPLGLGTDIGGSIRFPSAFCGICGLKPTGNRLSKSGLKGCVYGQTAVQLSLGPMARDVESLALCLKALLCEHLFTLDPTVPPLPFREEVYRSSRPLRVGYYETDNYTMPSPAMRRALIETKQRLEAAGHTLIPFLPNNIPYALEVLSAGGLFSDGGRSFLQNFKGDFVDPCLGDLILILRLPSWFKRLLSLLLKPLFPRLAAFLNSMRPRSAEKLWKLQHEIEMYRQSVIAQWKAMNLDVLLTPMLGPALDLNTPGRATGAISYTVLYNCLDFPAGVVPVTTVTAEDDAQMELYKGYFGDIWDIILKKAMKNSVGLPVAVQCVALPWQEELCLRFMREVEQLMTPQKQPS
Experimental: The assay of the anandamide amidase in vitro was performed as described previously (Deutsch, D. G. and S. A. Chin, Biochem. Pharmacol. 46:791-796 (1993)). The indicated amount of each compound was preincubated in a buffer consisting of 300 μg of crude rat brain homogenate protein, 500 μg/ml fatty acid-free bovine serum albumin, in phosphate-buffered saline in a final volume of 1.0 ml, for 10 minutes at 37° C. Crude rat brain homogenate was obtained by decapitating female adult Sprague-Dawley rats, dissecting the desired tissue and homogenizing in five volumes of ice-cold TE (10 mM Tris-HCl, 1 mM EDTA, pH 7.6). Substrate (27.7 μM anandamide+0.2 μCi of 221 Ci/mmol [^3H]anandamide ([arachidonyl-5,6,8,9,11,12,14,15-^3H]ethanolamide)) (obtained from the National Institute on Drug Abuse) was then added and the samples incubated for 10 minutes. The reaction was quenched by the addition of chloroform:methanol (1:1) and enzyme activity was analyzed by TLC as described in Example 1.

[2] = tested on: male MF1 mice; assay: Tail flick test of analgesia ("rat flick test"); settings: mouse, in vivo
[3] = target: T2, anandamide amidase (Mus musculus, UniProt O08914); assay: Anandamide amidase assay in intact neuroblastoma cells ([3H]anandamide levels); type: cell-based
T2 construct: The assay of the anandamide amidase in intact neuroblastoma cells; endogenous in cells; host or cells: N18TG2 neuroblastoma cells
T2 sequence (O08914 1-579): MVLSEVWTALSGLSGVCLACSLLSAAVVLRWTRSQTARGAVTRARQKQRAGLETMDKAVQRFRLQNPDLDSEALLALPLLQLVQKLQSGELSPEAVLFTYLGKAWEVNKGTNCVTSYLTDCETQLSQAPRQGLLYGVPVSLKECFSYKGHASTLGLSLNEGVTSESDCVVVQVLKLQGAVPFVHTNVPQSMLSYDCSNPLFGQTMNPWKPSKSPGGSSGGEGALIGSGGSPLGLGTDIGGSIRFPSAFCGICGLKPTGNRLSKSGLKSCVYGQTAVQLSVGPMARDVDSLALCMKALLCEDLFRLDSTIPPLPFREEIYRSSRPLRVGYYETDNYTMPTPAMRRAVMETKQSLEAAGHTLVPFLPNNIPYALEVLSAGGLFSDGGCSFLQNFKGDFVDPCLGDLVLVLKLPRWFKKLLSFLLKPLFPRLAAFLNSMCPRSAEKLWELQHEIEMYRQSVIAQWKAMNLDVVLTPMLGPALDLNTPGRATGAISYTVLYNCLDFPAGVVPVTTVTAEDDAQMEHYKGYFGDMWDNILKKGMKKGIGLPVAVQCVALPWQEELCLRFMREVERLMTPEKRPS
Experimental: The experiments were performed with 4×10^6 neuroblastoma cells (N18TG2)/6-cm dish. Experimental cells were incubated in 2 ml of media, consisting of Ham's F-12/Dulbecco's modified Eagle's medium (Life Technologies, Inc.) with penicillin, streptomycin, and gentamicin plus 10% bovine calf serum (HyClone, Logan, Utah), plus the indicated concentration of inhibitor for 20 minutes. All cells were grown at 37° in a humidified atmosphere containing 5% CO2 in air. [^3H]Anandamide (0.2 μCi of 221 Ci/mmol of [^3H]anandamide) was added and the incubation continued for 1 hour. Control cells contained no inhibitor. At the end of the incubation, the cells were washed once with cell culture media and removed from the plates, after a brief incubation with 2 ml of 0.05% trypsin in 0.53 mM EDTA solution at 37° C. The amounts of [^3H]anandamide, [^3H]phospholipids, and [^3H]arachidonate in the cells and media were quantified by liquid scintillation counting of the silica scraped from the appropriate areas of the plate after quenching the reaction with chloroform methanol (1:1), extraction of the sample from the organic phase, and TLC analysis on channeled silica gel-coated plates, with a solvent system consisting of the organic layer of an ethyl acetate:hexane:acetic acid:water (100:50:20:100) mixture.

[4] = target: T3, CB1 receptor (Rattus norvegicus, UniProt P20272); settings: rat brain membranes, FIG. 3; read-out: Ki in competition with [3H]CP-55940 binding to CB1
T3 construct: brain membranes were prepared from frozen rat brains; from tissue; host or cells: membranes from frozen rat brains
T3 sequence (P20272 whole entry): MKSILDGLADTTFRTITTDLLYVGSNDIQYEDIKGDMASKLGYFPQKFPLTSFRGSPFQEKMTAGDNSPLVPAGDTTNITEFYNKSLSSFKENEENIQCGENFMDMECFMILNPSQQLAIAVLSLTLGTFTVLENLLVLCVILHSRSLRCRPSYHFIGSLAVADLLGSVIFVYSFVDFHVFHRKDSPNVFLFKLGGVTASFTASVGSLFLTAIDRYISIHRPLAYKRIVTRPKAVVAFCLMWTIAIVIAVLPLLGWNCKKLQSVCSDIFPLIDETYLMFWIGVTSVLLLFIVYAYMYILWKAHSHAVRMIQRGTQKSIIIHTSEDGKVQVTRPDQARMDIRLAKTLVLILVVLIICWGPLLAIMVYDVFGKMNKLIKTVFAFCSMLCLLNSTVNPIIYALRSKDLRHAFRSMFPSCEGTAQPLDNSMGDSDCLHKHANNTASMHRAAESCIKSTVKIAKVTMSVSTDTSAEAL
Experimental: The filters were treated with 0.1% sodium dodecyl sulfate prior to addition of scintillation mixture and counting in a liquid scintillation counter.

[5] = crude rat brain homogenate, 10 min preincubation at 37° C., read-out: IC50 for inhibition of anandamide amidase

Compound: CCCCCCCCCCCCCCCCCCCCS(=O)(=O)F [Arachidylsulfonyl fluoride, arachidylsulfonyl fluoride]
- concentration at which effective inhibitor of anandamide amidase ([1]; crude rat brain homogenate): less than 100 nM

Compound: CCCCCCCCCCCCS(=O)(=O)F [laurylsulfonyl fluoride]
- pIC50 [1, 5]: > 8.00

Compound: CCCCCCCCCCCCCCS(=O)(=O)F [myristylsulfonyl fluoride]
- pIC50 [1, 5]: > 8.00

Compound: CCCCCCCCCCCCCCCCS(=O)(=O)F [palmitylsulfonyl fluoride]
- analgesia (in words) [2]: induce analgesia
- increase of the level of undegraded anandamide ([3]; 10 nM inhibitor, intact neuroblastoma cells (N18TG2)): 55 fold
- pIC50 [1]: > 8.00

Compound: O=S(=O)(F)Cc1ccccc1 [phenylmethylsulfonyl fluoride, reference compound]
- concentration required to achieve comparable levels of anandamide amidase inhibition ([3]; comparable to over 50% of radioactivity in anandamide, N18TG2 cells): greater than 10 micromolar

Compound: CCCCCCCCCCCCCCCCCCS(=O)(=O)F [stearylsulfonyl fluoride]
- pIC50 [1, 5]: > 8.00

Compound: arachidonyl trifluoromethyl ketone
- pKi [4]: 5.88
